# How the values were obtained:
# lipoamide = compound: NC(=O)CCCCC1CCSS1 [lipoamide]; assay: thermal stability z-score vs DMSO; higher = more thermally stabilized by treatment; conditions: HeLa, lipoamide concentration 100 µM
# Description: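 Cellular thermal proteome profiling in HeLa cells. Cells were treated with 100 µM lipoamide for 1 h, with or without 1 mM arsenate for a further 1 h, then heated to ten temperatures (37-66.3 °C), and soluble protein was quantified by TMT mass spectrometry relative to 0.1% DMSO controls. The thermal stability score (sum of log2 fold changes minus the abundance score) was transformed to a z-score; mean of n = 3 experiments.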
# potassium arsenate = compound: O=[As]([O-])(O)O.[K+] [potassium arsenate]; assay: as above; conditions: HeLa; arsenate concentration 1 mM
# Description: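 Cellular thermal proteome profiling in HeLa cells treated with 1 mM arsenate for 1 h (DMSO pretreatment), heated to ten temperatures (37-66.3 °C). Soluble protein was quantified by TMT mass spectrometry relative to DMSO controls; the thermal stability score was transformed to a z-score; mean of n = 3 experiments.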
# [1] = arsenate co-treatment: 1 mM arsenate 1 h
# 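Further: each temperature applied for 3 min, abundance score taken as mean log2 fold change at the two lowest temperatures, z-score obtained by mean subtraction and division by SD.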
# UniProt Q02413, sequence (Q02413 whole entry): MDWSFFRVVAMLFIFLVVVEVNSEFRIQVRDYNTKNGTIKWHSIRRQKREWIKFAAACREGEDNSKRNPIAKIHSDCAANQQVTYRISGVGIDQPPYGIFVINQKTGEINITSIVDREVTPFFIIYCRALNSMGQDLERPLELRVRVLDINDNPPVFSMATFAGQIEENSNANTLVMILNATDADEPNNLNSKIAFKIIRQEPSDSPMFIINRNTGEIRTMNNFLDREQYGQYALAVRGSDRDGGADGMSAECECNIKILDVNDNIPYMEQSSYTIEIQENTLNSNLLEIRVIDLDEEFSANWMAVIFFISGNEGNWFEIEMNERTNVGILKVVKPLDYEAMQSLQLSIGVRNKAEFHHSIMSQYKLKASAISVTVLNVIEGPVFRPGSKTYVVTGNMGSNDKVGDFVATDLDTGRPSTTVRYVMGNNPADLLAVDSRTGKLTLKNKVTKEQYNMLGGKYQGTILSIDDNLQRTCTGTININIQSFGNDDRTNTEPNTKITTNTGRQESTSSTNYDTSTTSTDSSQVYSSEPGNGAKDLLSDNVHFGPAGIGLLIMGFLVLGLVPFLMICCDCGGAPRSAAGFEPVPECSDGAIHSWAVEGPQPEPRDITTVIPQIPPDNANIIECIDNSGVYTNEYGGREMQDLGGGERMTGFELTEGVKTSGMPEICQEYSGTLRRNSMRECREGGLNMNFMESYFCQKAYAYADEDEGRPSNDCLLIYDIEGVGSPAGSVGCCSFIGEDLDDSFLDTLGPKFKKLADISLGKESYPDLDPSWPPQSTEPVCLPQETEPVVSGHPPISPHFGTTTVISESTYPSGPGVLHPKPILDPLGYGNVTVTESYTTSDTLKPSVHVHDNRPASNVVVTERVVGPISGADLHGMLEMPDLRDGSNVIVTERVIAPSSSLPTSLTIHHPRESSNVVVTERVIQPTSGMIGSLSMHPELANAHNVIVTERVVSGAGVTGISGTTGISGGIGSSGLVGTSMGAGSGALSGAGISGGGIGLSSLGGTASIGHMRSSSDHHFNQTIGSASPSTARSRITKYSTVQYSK
# UniProt Q7Z7G8, sequence (Q7Z7G8 whole entry): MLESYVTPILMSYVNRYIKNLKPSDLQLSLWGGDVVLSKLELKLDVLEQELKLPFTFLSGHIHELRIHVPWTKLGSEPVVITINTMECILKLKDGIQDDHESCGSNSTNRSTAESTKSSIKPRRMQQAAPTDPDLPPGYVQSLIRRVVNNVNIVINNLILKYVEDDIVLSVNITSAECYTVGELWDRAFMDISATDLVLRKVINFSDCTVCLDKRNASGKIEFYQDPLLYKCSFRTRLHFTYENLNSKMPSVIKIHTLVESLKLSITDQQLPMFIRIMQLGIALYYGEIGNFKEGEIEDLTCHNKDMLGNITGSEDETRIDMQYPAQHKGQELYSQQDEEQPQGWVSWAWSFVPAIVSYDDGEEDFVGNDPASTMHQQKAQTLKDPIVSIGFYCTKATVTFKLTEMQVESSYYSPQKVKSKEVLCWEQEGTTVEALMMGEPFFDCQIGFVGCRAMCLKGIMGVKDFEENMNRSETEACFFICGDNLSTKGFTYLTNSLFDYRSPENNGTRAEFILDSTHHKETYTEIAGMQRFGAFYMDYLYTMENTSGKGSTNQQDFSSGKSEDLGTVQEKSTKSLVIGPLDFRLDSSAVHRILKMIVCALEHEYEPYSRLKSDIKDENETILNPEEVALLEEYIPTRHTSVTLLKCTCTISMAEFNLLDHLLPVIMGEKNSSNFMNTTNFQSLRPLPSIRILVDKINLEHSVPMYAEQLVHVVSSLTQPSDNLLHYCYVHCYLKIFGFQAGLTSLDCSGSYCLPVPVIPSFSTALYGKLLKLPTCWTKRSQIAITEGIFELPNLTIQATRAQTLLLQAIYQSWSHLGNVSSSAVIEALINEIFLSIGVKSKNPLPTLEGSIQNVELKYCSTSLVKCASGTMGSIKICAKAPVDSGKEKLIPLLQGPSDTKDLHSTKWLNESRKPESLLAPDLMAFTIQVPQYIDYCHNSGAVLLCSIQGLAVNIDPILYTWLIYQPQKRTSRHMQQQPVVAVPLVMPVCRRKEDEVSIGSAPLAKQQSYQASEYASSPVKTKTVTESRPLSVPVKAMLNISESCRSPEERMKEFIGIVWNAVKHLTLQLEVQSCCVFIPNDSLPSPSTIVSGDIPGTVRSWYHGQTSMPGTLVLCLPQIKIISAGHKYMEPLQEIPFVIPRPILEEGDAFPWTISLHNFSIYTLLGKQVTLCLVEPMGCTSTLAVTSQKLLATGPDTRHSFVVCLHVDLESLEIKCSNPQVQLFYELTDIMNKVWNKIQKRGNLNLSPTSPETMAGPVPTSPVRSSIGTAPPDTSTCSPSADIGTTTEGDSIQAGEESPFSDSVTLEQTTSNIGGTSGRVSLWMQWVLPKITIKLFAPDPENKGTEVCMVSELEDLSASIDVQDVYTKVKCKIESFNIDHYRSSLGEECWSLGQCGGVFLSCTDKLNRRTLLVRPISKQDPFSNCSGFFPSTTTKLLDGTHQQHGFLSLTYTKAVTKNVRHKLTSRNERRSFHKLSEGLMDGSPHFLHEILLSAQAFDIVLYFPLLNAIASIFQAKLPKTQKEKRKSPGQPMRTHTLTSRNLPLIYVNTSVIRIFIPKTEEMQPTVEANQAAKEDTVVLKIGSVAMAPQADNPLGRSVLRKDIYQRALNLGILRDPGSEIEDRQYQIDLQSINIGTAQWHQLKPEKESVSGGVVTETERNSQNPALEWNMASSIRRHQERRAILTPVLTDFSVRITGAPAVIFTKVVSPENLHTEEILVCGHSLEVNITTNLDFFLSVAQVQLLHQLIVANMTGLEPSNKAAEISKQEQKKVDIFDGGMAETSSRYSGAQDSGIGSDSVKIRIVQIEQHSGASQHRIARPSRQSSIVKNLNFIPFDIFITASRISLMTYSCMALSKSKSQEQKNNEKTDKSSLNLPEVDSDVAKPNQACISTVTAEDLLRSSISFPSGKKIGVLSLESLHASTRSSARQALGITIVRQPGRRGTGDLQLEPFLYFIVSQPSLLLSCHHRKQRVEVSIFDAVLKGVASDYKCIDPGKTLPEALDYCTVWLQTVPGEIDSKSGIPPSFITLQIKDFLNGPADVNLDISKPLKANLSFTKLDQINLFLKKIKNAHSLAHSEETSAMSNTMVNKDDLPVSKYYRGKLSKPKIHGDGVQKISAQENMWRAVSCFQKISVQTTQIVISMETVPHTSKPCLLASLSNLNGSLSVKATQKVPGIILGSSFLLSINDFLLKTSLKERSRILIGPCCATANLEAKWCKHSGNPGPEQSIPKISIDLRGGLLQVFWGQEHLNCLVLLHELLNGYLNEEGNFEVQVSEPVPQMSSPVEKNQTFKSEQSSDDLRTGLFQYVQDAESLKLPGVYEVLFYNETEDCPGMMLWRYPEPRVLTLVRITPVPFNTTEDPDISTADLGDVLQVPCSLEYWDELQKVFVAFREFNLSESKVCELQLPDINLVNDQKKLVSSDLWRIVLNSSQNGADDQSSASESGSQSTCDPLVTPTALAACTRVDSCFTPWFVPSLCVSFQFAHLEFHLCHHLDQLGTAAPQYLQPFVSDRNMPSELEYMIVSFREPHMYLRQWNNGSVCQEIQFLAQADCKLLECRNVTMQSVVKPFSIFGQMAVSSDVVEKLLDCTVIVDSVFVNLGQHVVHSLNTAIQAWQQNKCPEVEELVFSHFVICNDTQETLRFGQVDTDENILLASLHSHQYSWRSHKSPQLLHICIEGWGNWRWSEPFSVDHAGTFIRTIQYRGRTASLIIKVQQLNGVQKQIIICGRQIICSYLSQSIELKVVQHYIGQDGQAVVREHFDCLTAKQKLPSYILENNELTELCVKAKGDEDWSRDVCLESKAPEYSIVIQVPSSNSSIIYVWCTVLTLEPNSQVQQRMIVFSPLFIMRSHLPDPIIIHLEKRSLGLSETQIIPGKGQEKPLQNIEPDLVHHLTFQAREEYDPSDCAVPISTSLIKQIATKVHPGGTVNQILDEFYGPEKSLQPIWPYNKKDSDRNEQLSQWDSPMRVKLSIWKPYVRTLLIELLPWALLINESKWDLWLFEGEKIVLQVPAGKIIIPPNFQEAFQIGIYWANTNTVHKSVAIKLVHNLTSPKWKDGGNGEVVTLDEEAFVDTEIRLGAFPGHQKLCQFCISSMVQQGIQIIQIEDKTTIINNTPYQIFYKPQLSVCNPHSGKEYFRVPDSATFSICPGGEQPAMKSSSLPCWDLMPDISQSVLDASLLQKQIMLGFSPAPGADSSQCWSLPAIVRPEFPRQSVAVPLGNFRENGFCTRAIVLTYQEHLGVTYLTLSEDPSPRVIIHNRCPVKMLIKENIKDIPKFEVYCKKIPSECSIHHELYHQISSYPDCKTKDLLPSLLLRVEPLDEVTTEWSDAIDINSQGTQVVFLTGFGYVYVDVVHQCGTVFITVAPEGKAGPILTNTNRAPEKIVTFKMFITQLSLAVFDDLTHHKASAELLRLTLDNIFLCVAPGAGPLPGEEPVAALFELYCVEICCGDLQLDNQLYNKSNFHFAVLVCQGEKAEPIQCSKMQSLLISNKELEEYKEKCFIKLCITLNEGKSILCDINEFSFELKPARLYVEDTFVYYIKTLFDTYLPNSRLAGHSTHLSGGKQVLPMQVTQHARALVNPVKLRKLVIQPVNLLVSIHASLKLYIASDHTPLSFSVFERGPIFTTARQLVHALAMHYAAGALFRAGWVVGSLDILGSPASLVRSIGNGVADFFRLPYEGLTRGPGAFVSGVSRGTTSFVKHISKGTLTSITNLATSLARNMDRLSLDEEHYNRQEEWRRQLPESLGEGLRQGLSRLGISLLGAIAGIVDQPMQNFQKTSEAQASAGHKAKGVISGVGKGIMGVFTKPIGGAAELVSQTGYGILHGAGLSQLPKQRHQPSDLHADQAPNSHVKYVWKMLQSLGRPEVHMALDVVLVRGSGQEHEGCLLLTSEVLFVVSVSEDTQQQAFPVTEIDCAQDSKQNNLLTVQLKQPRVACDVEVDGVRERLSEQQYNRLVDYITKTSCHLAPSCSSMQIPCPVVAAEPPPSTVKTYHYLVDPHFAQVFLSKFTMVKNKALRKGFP
# UniProt Q9Y5L4, sequence (Q9Y5L4 whole entry): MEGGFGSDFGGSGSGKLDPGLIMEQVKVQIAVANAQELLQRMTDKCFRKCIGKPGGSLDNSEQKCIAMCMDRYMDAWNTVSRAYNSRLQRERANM
Target,thermal stability z-score (lipoamide; [1]),thermal stability z-score (lipoamide; arsenate co-treatment: none),thermal stability z-score (potassium arsenate)
DSG1 (UniProt Q02413),11,13.3,1.69
KTI12 (UniProt Q96EK9),0.014,-0.222,-0.224
PRPSAP1 (UniProt Q14558),0.0495,-0.517,-0.858
GGA3 (UniProt Q9NZ52),-0.3,0.0568,-0.298
CIT (UniProt O14578),0.342,-0.767,-0.76
EIF5 (UniProt P55010),0.0938,0.375,-1.08
AP2A2 (UniProt O94973),-0.0644,-0.149,-0.337
DNAJB6 (UniProt O75190),1.19,0.248,0.728
TLE3 (UniProt Q04726),0.171,0.329,-0.674
PPFIA1 (UniProt Q13136),-0.28,-0.239,0.263
RDH10 (UniProt Q8IZV5),0.347,0.244,0.115
DUT (UniProt P33316),-0.171,0.377,-0.727
BUB1B (UniProt O60566),0.0397,0.232,0.247
USP5 (UniProt P45974),0.0243,0.351,0.0981
SKA1 (UniProt Q96BD8),-0.047,0.0119,-0.0935
DNAAF2 (UniProt Q9NVR5),-0.15,-0.168,-0.268
FIBP (UniProt O43427),0.453,0.0779,0.125
ABCC5 (UniProt O15440),0.335,0.0156,-0.077
SLC9A3R1 (UniProt O14745),0.348,0.362,-0.36
CHUK (UniProt O15111),0.887,0.727,0.578
TRAP1 (UniProt Q12931),-1.2,0.188,-0.477
NDUFA6 (UniProt P56556),-0.164,-0.00891,0.505
FAIM (UniProt Q9NVQ4),1.03,0.411,0.336
DDB1 (UniProt Q16531),-0.479,-0.519,-0.468
TONSL (UniProt Q96HA7),-0.0593,0.0162,-0.339
GTF3C5 (UniProt Q9Y5Q8),0.0669,0.0127,-0.367
DOK1 (UniProt Q99704),0.221,-0.608,-0.45
FKBP3 (UniProt Q00688),0.676,0.552,-0.406

Target,thermal stability z-score (lipoamide; [1]),thermal stability z-score (lipoamide; arsenate co-treatment: none),thermal stability z-score (potassium arsenate)
ATP1B3 (UniProt P54709),-0.0616,-0.138,-0.13
ID1 (UniProt P41134),0.197,0.0434,-0.00372
NPRL3 (UniProt Q12980),-0.0487,0.0269,-0.104
RFT1 (UniProt Q96AA3),-0.878,-0.767,-0.609
SLC11A2 (UniProt P49281),-1.6,-0.179,0.512
EIF3M (UniProt Q7L2H7),0.136,-0.372,0.304
RNF123 (UniProt Q5XPI4),-0.194,-0.0174,-0.445
SLC39A11 (UniProt Q8N1S5),0.867,0.694,0.429
VPS13B (UniProt Q7Z7G8),0.291,0.491,-0.168
TMED5 (UniProt Q9Y3A6),-1.78,-1.51,0.321
CHEK1 (UniProt O14757),0.0611,-0.137,-0.526
SMC3 (UniProt Q9UQE7),0.0797,0.288,-0.181
MYO18A,-0.283,0.122,0.197
POLR3B (UniProt Q9NW08),0.417,0.0689,0.309
DMAP1 (UniProt Q9NPF5),-0.551,-0.38,-0.644
TIMM13 (UniProt Q9Y5L4),1.99,1.56,-0.381
CHCHD2 (UniProt Q9Y6H1),1.56,1.34,0.592
REPS1 (UniProt Q96D71),-0.864,-0.26,0.157
AGPAT5 (UniProt Q9NUQ2),-0.478,-0.94,-0.259
ERP44 (UniProt Q9BS26),-2.86,-2.35,0.885
POMK (UniProt Q9H5K3),0.213,-0.243,-0.285
LCMT1 (UniProt Q9UIC8),0.437,0.614,-0.0988
RAB20 (UniProt Q9NX57),-0.495,-0.609,-0.306
DDX54 (UniProt Q8TDD1),-0.154,-0.015,-0.136
BIRC5 (UniProt O15392),0.166,0.186,0.136
AGMAT (UniProt Q9BSE5),0.292,0.565,0.92
CYB5R4 (UniProt Q7L1T6),0.477,0.1,-0.243
